In brackets after ≈: the same amount, converted by molar mass.
Assays:
Assay type in all cases: cell-based
S. aureus ATCC 29213 = assay: Antimicrobial susceptibility test (MIC), micro-dilution broth; settings: for MIC S. aureus 29213: S. aureus ATCC 29213
From the text: (§1) Bacterial strains. S. aureus ATCC 29213, E. coli MG1655, E. coli BAA-2340, E. coli BAA-2469, E. coli BAA-2471, E. cloacae BAA-2341, E. cloacae BAA-2468, K. pneumoniae BAA-1705, K. pneumoniae BAA-2342, K. pneumoniae BAA-2470, K. pneumoniae BAA-2472, and K. pneumoniae BAA-2473 were obtained from ATCC. E. coli JW5503 and E. coli JW3596 were obtained from the KEIO Collection. E. cloacae ATCC 29893 was provided by W. van der Donk (UIUC). E. coli AR-0346, E. coli AR-0349, E. coli AR-0493, E. coli AR-0495, and K. pneumoniae AR-0347 were obtained from the CDC and FDA AR Isolate Bank. E. coli F20987, E. coli M66623, E. cloacae S28901.1, K. pneumoniae M14723, K. pneumoniae M67198, K. pneumoniae M67297, K. pneumoniae S20595, K. pneumoniae S47889, A. baumannii W41979, A. baumannii F19521, A. baumannii M13100, and A. baumannii WO22 were obtained from the University of Illinois Chicago Medical School. A. baumannii KB304, A. baumannii KB343, and A. baumannii KB357 were provided by J. Quale.
(§2) Antimicrobial susceptibility tests. Susceptibility testing was performed in biological triplicate, using the micro-dilution broth method as outlined by the Clinical and Laboratory Standards Institute. Bacteria were cultured with cation-adjusted Muller-Hinton broth (Sigma-Aldrich, Cat# 90922) in round-bottom 96-well plates (Corning, Cat# 3788). Human serum (pooled gender, 0.2 μm filtered) was purchased from BioIVT (Hicksville, NY).

E. coli ΔtolC (JW5503) = settings: for MIC E. coli ΔtolC: efflux deficient E. coli ΔtolC
Procedure: (§3) The compounds synthesized, shown in Table 1, were evaluated against Gram-positive and Gram-negative reference strains (S. aureus 29213 and E. coli MG1655, respectively), as well as an efflux deficient E. coli strain (ΔtolC, JW5503).
as §1, §2

E. coli MG1655 = assay: Antimicrobial susceptibility test (MIC); settings: for % @ 32 (in brackets after MIC): E. coli MG1655, 32 μg/mL
From the text: as §1, §2

K. pneumoniae BAA 2472 = assay: microbe, parasite or virus in culture; settings: clinical isolate
Procedure: as §3, §1, §2

A. baumannii AR 0033 = assay: microbe, parasite or virus in culture; settings: clinical isolate
Procedure: as §2

A. baumannii AR 0273 = assay: microbe, parasite or virus in culture; settings: clinical isolate
Procedure: as §2

A. baumannii AR 0299 = assay: microbe, parasite or virus in culture; settings: clinical isolate
Procedure: as §2

A. baumannii AR 0313 = assay: microbe, parasite or virus in culture; settings: clinical isolate
Procedure: as §2

E. coli AR 0048 = assay: microbe, parasite or virus in culture; settings: clinical isolate
Procedure: as §2

E. coli AR 0085 = assay: microbe, parasite or virus in culture; settings: clinical isolate
Procedure: as §2

K. pneumoniae AR 0066 = assay: microbe, parasite or virus in culture; settings: clinical isolate
Procedure: as §2

K. pneumoniae AR 0113 = assay: microbe, parasite or virus in culture; settings: clinical isolate
Procedure: as §2

K. pneumoniae AR 0560 = assay: microbe, parasite or virus in culture; settings: clinical isolate
Procedure: as §2

| Compound | MIC S. aureus 29213 (S. aureus ATCC 29213) [µg/mL] | MIC E. coli ΔtolC (E. coli ΔtolC (JW5503)) [µg/mL] | MIC E. coli MG1655 (E. coli MG1655) [µg/mL] | further results |
| --- | --- | --- | --- | --- |
| Cc1c(CN(C)C(=O)C=Cc2cnc3c(c2)CC2(CCC(N)CC2)C(=O)N3)oc2ccccc12 (mixture of isomers) [(±)-8] | 0.016 | 0.062 | 16 | – |
| Cc1c(CN(C)C(=O)/C=C/c2cnc3c(c2)CCC(CCN)C(=O)N3)oc2ccccc12 (racemic) [(±)-13] | 0.062 (≈ 0.143 µM) | 0.125 (≈ 0.289 µM) | 32 (≈ 74 µM) | – |
| Cc1c(CN(C)C(=O)C=Cc2cnc3c(c2)CC2(CCC(CN)CC2)C(=O)N3)oc2ccccc12 (mixture of isomers) [(±)-9] | 0.031 | 0.062 | 16 | – |
| Cc1c(CN(C)C(=O)/C=C/c2cnc3c(c2)CCC(N)C(=O)N3)oc2ccccc12 (racemic) [drawing 108] | 0.016 (≈ 0.0396 µM) | 0.031 (≈ 0.0766 µM) | 4 (≈ 9.89 µM) | – |
| Cc1c(CN(C)C(=O)/C=C/c2cnc3c(c2)CCC(N)C(=O)N3)oc2ccccc12 (single isomer, unassigned) [drawing 109] | 0.125 to 0.250 | > 1 | > 32 | % @ 1 (in brackets after MIC) (E. coli ΔtolC (JW5503); E. coli ΔTolC, 1 μg/mL): 50%; % @ 32 (in brackets after MIC) (E. coli MG1655): 20% |
| Cc1c(CN(C)C(=O)/C=C/c2cnc3c(c2)CC2(CC(CN)C2)C(=O)N3)oc2ccccc12 (stereo not shown) | – | – | – | MIC K. pneumoniae BAA 2472 (K. pneumoniae BAA 2472): 32 µg/mL (≈ 72 µM); MIC A. baumannii AR 0033 (A. baumannii AR 0033): 32 µg/mL (≈ 72 µM); MIC A. baumannii AR 0273 (A. baumannii AR 0273): >32 µg/mL; MIC A. baumannii AR 0299 (A. baumannii AR 0299): >32 µg/mL; MIC A. baumannii AR 0313 (A. baumannii AR 0313): >32 µg/mL; MIC E. coli AR 0048 (E. coli AR 0048): 32 µg/mL (≈ 72 µM); MIC E. coli AR 0085 (E. coli AR 0085): 16 µg/mL (≈ 36 µM); MIC K. pneumoniae AR 0066 (K. pneumoniae AR 0066): 32 µg/mL (≈ 72 µM); MIC K. pneumoniae AR 0113 (K. pneumoniae AR 0113): 32 µg/mL (≈ 72 µM); MIC K. pneumoniae AR 0560 (K. pneumoniae AR 0560): 32 µg/mL (≈ 72 µM) |
| NC1CCc2cc(C=CC(=O)N3CC4C=C(c5ccccc5)CC4C3)cnc2NC1=O (mixture of isomers) | 0.031 | 0.062 | 8 | – |
| Cc1c(CN(C)C(=O)C=Cc2cnc3c(c2)CC2(CC(CN)C2)C(=O)N3)oc2ccccc12 (mixture of isomers) [(±)-7] | 0.031 | 0.125 | 16 | – |
| Cc1c(CN(C)C(=O)/C=C/c2cnc3c(c2)CCC(=O)N3)oc2ccccc12 [drawing 82, reference compound] | 0.008 to 0.016 | 0.031 (≈ 0.0826 µM) | – | – |
| Cc1c(CN(C)C(=O)/C=C/c2cnc3c(c2)CC2(CC(N)C2)C(=O)N3)oc2ccccc12 (stereo not shown) | 0.016 (≈ 0.0372 µM) | 0.062 (≈ 0.144 µM) | 4 (≈ 9.29 µM) | – |
| Cc1c(CN(C)C(=O)/C=C/c2cnc3c(c2)CC(N)C(=O)N3)oc2ccc(F)cc12.Cl (stereo not shown) | 0.125 | 1 | > 32 | % @ 0.062 (in brackets after MIC) (S. aureus ATCC 29213; S. aureus ATCC 29213, 0.062 μg/mL): 60%; % @ 0.5 (in brackets after MIC) (E. coli ΔtolC (JW5503); E. coli ΔTolC, 0.5 μg/mL): 60%; % @ 32 (in brackets after MIC) (E. coli MG1655): 40% |
| Cc1c(CN(C)C(=O)/C=C/c2cnc3c(c2)CCC(N)C(=O)N3)oc2ccccc12 (single isomer, unassigned) [drawing 110] | 0.004 to 0.008 | 0.031 (≈ 0.0766 µM) | 2 (≈ 4.94 µM) | % @ 0.016 (in brackets after MIC) (E. coli ΔtolC (JW5503); E. coli ΔTolC, 0.016 μg/mL): 40-95% |
| Cc1c(CN(C)C(=O)/C=C/c2ccc3c(c2)CCC(N)C(=O)N3)oc2ccccc12 (single isomer, unassigned) [Isomer 1] | – | – | – | MIC K. pneumoniae BAA 2472 (K. pneumoniae BAA 2472): >32 µg/mL; MIC A. baumannii AR 0033 (A. baumannii AR 0033): >32 µg/mL; MIC A. baumannii AR 0273 (A. baumannii AR 0273): >32 µg/mL; MIC A. baumannii AR 0299 (A. baumannii AR 0299): >32 µg/mL; MIC A. baumannii AR 0313 (A. baumannii AR 0313): >32 µg/mL; MIC E. coli AR 0048 (E. coli AR 0048): >32 µg/mL; MIC E. coli AR 0085 (E. coli AR 0085): >32 µg/mL; MIC K. pneumoniae AR 0066 (K. pneumoniae AR 0066): >32 µg/mL; MIC K. pneumoniae AR 0113 (K. pneumoniae AR 0113): >32 µg/mL; MIC K. pneumoniae AR 0560 (K. pneumoniae AR 0560): >32 µg/mL |
